{
  "source": "paper PMC9095539",
  "about": "(Clinical Pharmacokinetics, 2022)",
  "origin": "cited, not measured here",
  "key": {"[1]": {"test_system": "CYP2C9"}, "[2]": {"test_system": "CYP2C19"}, "[3]": {"test_system": "CYP2B6"}, "[4]": {"conditions": "BCS; no reference given"}, "[5]": {"test_system": "CYP3A4"}},
  "data": [
    {"smiles": "CCCS(=O)(=O)N[C@H]1C[C@@H](N(C)c2ncnc3[nH]ccc23)C1", "note": "[abrocitinib, N-{cis-3-[Methyl(7H-pyrrolo[2,3-d]pyrimidin-4-yl)amino]cyclobutyl}propane-1-sulfo namide]", "values": [
      {"measurement": "Eliminated unchanged in urine", "value": "1.0–4.4%"},
      {"measurement": "Time to steady-state plasma concentrations", "setting": "once-daily dosing", "value": "≤ 4", "unit": "days"},
      {"measurement": "Time to reach maximum levels", "setting": "oral, healthy individuals", "value": "≤ 1.5", "unit": "h"},
      {"measurement": "Contribution to hepatic metabolism", "setting": "[1]", "value": 30, "unit": "%"},
      {"measurement": "Contribution to hepatic metabolism", "setting": "[2]", "value": 53, "unit": "%"},
      {"measurement": "Contribution to hepatic metabolism", "setting": "[3]", "value": 7, "unit": "%"},
      {"measurement": "Permeability", "setting": "[4]", "value": "high"},
      {"measurement": "Contribution to hepatic metabolism", "setting": "[5]", "value": 11, "unit": "%"}
    ]}
  ]
}
